Results published in ChEMBL document CHEMBL1201862, “PubChem BioAssay data set” (2004).
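Five compound concentrations were applied to cells in 96-well plates for 48 hours; endpoints were derived by simple linear interpolation of the resulting dose-response curve. GI50 is the concentration that inhibits growth by half.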 The source made the active and inactive calls. Cut-off read from the data, not from the text of the source: active = GI50 up to about 1.1 µM and inactive = higher.

Columns and labels:
Assay in all cases: DTP human tumour cell line panel, 48 h
HOP-62 = system: HOP-62
RPMI-8226 = system: RPMI-8226
COLO 205 = system: COLO 205
CAKI-1 = system: CAKI-1
SW-620 = system: SW-620
SK-OV-3 = system: SK-OV-3
OVCAR-8 = system: OVCAR-8
NCI-H226 = system: NCI-H226
NCI-H522 = system: NCI-H522
ACHN = system: ACHN
OVCAR-3 = system: OVCAR-3
MOLT-4 = system: MOLT-4
UO-31 = system: UO-31
SK-MEL-28 = system: SK-MEL-28
NCI-H23 = system: NCI-H23

Compound	GI50 (HOP-62)	GI50 (RPMI-8226)	GI50 (COLO 205)	GI50 (CAKI-1)	GI50 (SW-620)	GI50 (SK-OV-3)	GI50 (OVCAR-8)	GI50 (NCI-H226)	GI50 (NCI-H522)	GI50 (ACHN)	GI50 (OVCAR-3)	GI50 (MOLT-4)	GI50 (UO-31)	GI50 (SK-MEL-28)	GI50 (NCI-H23)
O=[N+]([O-])c1cc(C(F)(F)F)cc([N+](=O)[O-])c1CCl	16.1 µM (inactive)	1.16 µM (inactive)	2.13 µM (inactive)	3.15 µM (inactive)	0.429 µM (active)	5.73 µM (inactive)	2.14 µM (inactive)	1.57 µM (inactive)	0.328 µM (active)	14.5 µM (inactive)	5.24 µM (inactive)	0.248 µM (active)	7.87 µM (inactive)	4.84 µM (inactive)	1.69 µM (inactive)
O=C(c1ccccc1)C(c1ccccc1)C1(O)C(=O)Nc2ccc([N+](=O)[O-])cc21 (stereo not drawn)	> 100 µM (inactive)	37.7 µM (inactive)	26.2 µM (inactive)	> 100 µM (inactive)	> 100 µM (inactive)	19.4 µM (inactive)	> 100 µM (inactive)	> 100 µM (inactive)	74 µM (inactive)	33 µM (inactive)	–	83.2 µM (inactive)	47.6 µM (inactive)	> 100 µM (inactive)	92 µM (inactive)
Cc1ccc(C)c(NC(=O)/C(=N\NC(N)=S)C(C#N)c2ccccc2)c1 (stereo not drawn)	> 100 µM (inactive)	> 100 µM (inactive)	> 100 µM (inactive)	> 100 µM (inactive)	> 100 µM (inactive)	> 100 µM (inactive)	> 100 µM (inactive)	> 100 µM (inactive)	> 100 µM (inactive)	> 100 µM (inactive)	> 100 µM (inactive)	> 100 µM (inactive)	> 100 µM (inactive)	> 100 µM (inactive)	> 100 µM (inactive)
COc1cc2c(c(OC)c1OC)-c1ccc(SC)c(=O)cc1[C@@H](NCc1ccccc1[N+](=O)[O-])CC2	0.0174 µM (active)	0.00671 µM (active)	0.0082 µM (active)	0.01 µM (active)	0.00333 µM (active)	0.0041 µM (active)	0.0184 µM (active)	0.0234 µM (active)	0.011 µM (active)	0.0439 µM (active)	0.00428 µM (active)	0.0241 µM (active)	0.01 µM (active)	0.00444 µM (active)	0.00429 µM (active)
COc1cc(C(O)C(=O)c2nc3ccc([N+](=O)[O-])cc3nc2O)ccc1O (stereo not drawn)	> 100 µM (inactive)	77.3 µM (inactive)	> 100 µM (inactive)	> 100 µM (inactive)	> 100 µM (inactive)	> 100 µM (inactive)	> 100 µM (inactive)	> 100 µM (inactive)	18.8 µM (inactive)	54.2 µM (inactive)	> 100 µM (inactive)	> 100 µM (inactive)	> 100 µM (inactive)	26.4 µM (inactive)	> 100 µM (inactive)
COC(=O)/C=C(C)/C=C/c1c(C)c(C(C)=O)c(C)n1C	> 100 µM (inactive)	57.7 µM (inactive)	> 100 µM (inactive)	63.5 µM (inactive)	> 100 µM (inactive)	> 100 µM (inactive)	> 100 µM (inactive)	80.4 µM (inactive)	51.1 µM (inactive)	> 100 µM (inactive)	> 100 µM (inactive)	40.3 µM (inactive)	61.1 µM (inactive)	–	> 100 µM (inactive)
COC(OC)C(C)CC(=O)N(C)C (stereo not drawn)	> 100 µM (inactive)	> 100 µM (inactive)	> 100 µM (inactive)	–	> 100 µM (inactive)	> 100 µM (inactive)	> 100 µM (inactive)	> 100 µM (inactive)	–	> 100 µM (inactive)	> 100 µM (inactive)	> 100 µM (inactive)	> 100 µM (inactive)	> 100 µM (inactive)	–
O=C1OC(CC(=O)c2ccc(F)cc2)C(Cl)=C1Cl (stereo not drawn)	32.1 µM (inactive)	34.2 µM (inactive)	–	39.4 µM (inactive)	23.3 µM (inactive)	49 µM (inactive)	19.4 µM (inactive)	18.5 µM (inactive)	18.9 µM (inactive)	34.4 µM (inactive)	22.1 µM (inactive)	29 µM (inactive)	22.3 µM (inactive)	43.3 µM (inactive)	29.6 µM (inactive)
O=C(CC(C(=O)c1ccsc1)c1cccs1)c1cccs1 (stereo not drawn)	> 100 µM (inactive)	33.1 µM (inactive)	94.8 µM (inactive)	–	> 100 µM (inactive)	> 100 µM (inactive)	83.8 µM (inactive)	> 100 µM (inactive)	33.4 µM (inactive)	99.1 µM (inactive)	38.7 µM (inactive)	33 µM (inactive)	28.1 µM (inactive)	> 100 µM (inactive)	> 100 µM (inactive)
